target: GST-tagged-Wee1 kinase (Homo sapiens, UniProt P30291); assay: Wee1 time-resolved fluorescence equilibrium binding assay (displacement of Oregon Green-labeled ATP-competitive kinase probe)
Experimental: Wee1 kinase was assayed using a time-resolved fluorescence equilibrium binding assay monitoring displacement of a rapidly reversible Oregon Green-labeled ATP-competitive kinase probe (N-(2-(2-(2-(4-(4-(5-chloro-4-(2-(1-hydroxycyclobutyl)thiazol-5-yl)-1H-pyrrolo[2,3-b]pyridin-2-yl)phenyl)piperazin-1-yl)ethoxy)ethoxy)ethyl)-2′,7′-difluoro-3′,6′-dihydroxy-3-oxo-3H-spiro[isobenzofuran-1,9′-xanthene]-5-carboxamide) by competitive Wee1 inhibitors.

Chain of GST-tagged-Wee1 kinase (P30291 whole entry): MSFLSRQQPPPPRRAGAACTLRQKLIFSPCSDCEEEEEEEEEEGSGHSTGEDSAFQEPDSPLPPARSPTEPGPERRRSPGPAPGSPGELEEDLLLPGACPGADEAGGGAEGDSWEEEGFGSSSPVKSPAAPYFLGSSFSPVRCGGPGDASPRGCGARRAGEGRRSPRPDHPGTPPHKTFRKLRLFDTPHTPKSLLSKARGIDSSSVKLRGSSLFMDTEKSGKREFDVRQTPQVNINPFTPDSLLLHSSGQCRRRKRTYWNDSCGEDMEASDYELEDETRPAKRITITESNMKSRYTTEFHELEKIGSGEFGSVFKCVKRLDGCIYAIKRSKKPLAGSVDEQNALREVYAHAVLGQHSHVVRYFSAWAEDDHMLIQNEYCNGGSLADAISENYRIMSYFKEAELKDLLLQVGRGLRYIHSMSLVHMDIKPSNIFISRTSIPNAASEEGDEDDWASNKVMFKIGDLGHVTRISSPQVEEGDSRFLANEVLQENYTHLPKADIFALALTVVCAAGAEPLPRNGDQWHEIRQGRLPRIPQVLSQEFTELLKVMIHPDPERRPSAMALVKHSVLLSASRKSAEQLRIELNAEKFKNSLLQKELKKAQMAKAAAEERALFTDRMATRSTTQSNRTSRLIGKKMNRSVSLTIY

| Ki [nM] | SMILES |
| --- | --- |
| 0.81 | CS(=O)(=O)N1Cc2cc(Nc3ncc4c(=O)n(-c5c(Cl)cccc5Cl)nc(-c5ccncc5)c4n3)ccc2C2(CC2)C1 [Example 381, 6-(2,6-dichlorophenyl)-2-{[2′-(methylsulfonyl)-2′,3′-dihydro-1′H-spiro[cyclopropane-1,4′-isoquinolin]-7′-yl]amino}-8-(pyridin-4-yl)pyrimido[4,5-d]pyridazin-5(6H)-one] |
| 69 | Cn1cnc(-c2nn(-c3ccncc3Cl)c(=O)c3cnc(Nc4ccc5c(c4)CNCC54CC4)nc23)c1 [Example 373, 6-(3-chloropyridin-4-yl)-2-(2′,3′-dihydro-1′H-spiro[cyclopropane-1,4′-isoquinolin]-7′-ylamino)-8-(1-methyl-1H-imidazol-4-yl)pyrimido[4,5-d]pyridazin-5(6H)-one] |
| 7.2 | O=c1c2cnc(Nc3ccc4c(c3)CNCC43CC3)nc2c(-c2ccccn2)nn1-c1ccncc1Cl [Example 385, 6-(3-chloropyridin-4-yl)-2-(2′,3′-dihydro-1′H-spiro[cyclopropane-1,4′-isoquinolin]-7′-ylamino)-8-(pyridin-2-yl)pyrimido[4,5-d]pyridazin-5(6H)-one] |
| 0.21 | O=c1c2cnc(Nc3ccc4c(c3)CNCC4)nc2c(-c2nccs2)nn1-c1c(Cl)cccc1Cl [Example 346, 6-(2,6-dichlorophenyl)-2-(1,2,3,4-tetrahydroisoquinolin-7-ylamino)-8-(1,3-thiazol-2-yl)pyrimido[4,5-d]pyridazin-5(6H)-one] |
| 0.49 | CN1CCN(c2ccc(Nc3ncc4c(=O)n(-c5c(Cl)cccc5Cl)ncc4n3)cc2)CC1 [Example 323, 6-(2,6-dichlorophenyl)-2-{[4-(4-methylpiperazin-1-yl)phenyl]amino}pyrimido[4,5-d]pyridazin-5(6H)-one] |
| 1.3 | CS(=O)(=O)N1CCN(c2ccc(Nc3ncc4c(=O)n(-c5c(Cl)cccc5Cl)nc(-c5ccccn5)c4n3)cc2)CC1 [Example 376, 6-(2,6-dichlorophenyl)-2-({4-[4-(methylsulfonyl)piperazin-1-yl]phenyl}amino)-8-(pyridin-2-yl)pyrimido[4,5-d]pyridazin-5(6H)-one] |
| 0.69 | CCc1nn(-c2c(Cl)cccc2Cl)c(=O)c2cnc(Nc3ccc(N4C[C@H]5C[C@@H]4CN5)cc3)nc12 [Example 468, 2-({4-[(1R,4R)-2,5-diazabicyclo[2.2.1]hept-2-yl]phenyl}amino)-6-(2,6-dichlorophenyl)-8-ethylpyrimido[4,5-d]pyridazin-5(6H)-one] |
| 0.34 | O=c1c2cnc(Nc3ccc4c(c3)CNCC43CC3)nc2c(-c2nccs2)nn1-c1c(Cl)cccc1Cl [Example 345, 6-(2,6-dichlorophenyl)-2-(2′,3′-dihydro-1′H-spiro[cyclopropane-1,4′-isoquinolin]-7′-ylamino)-8-(1,3-thiazol-2-yl)pyrimido[4,5-d]pyridazin-5(6H)-one] |
| 2.7 | Cc1nn(-c2c(Cl)cccc2Cl)c(=O)c2cnc(Nc3cccc(N4CCOCC4)c3)nc12 [Example 505, 6-(2,6-dichlorophenyl)-8-methyl-2-{[3-(morpholin-4-yl)phenyl]amino}pyrimido[4,5-d]pyridazin-5(6H)-one] |
| 0.29 | Cc1nn(-c2c(Cl)cncc2Cl)c(=O)c2cnc(Nc3ccc4c(c3)CN(C)C4(C)C)nc12 [Example 488, 6-(3,5-dichloropyridin-4-yl)-8-methyl-2-[(1,1,2-trimethyl-2,3-dihydro-1H-isoindol-5-yl)amino]pyrimido[4,5-d]pyridazin-5(6H)-one] |
| 0.28 | CN1Cc2cc(Nc3ncc4c(=O)n(-c5c(Cl)cccc5Cl)nc(C5CC5)c4n3)ccc2C2(CC2)C1 [Example 389, 8-cyclopropyl-6-(2,6-dichlorophenyl)-2-[(2′-methyl-2′,3′-dihydro-1′H-spiro[cyclopropane-1,4′-isoquinolin]-7′-yl)amino]pyrimido[4,5-d]pyridazin-5(6H)-one] |

The next lines start with the compound.

| SMILES | Ki [nM] |
| --- | --- |
| Cc1ccccc1-n1nc(-c2ccccc2)c2nc(Nc3ccc4c(c3)CN(C)CC43CC3)ncc2c1=O [Example 173, 2-[(2′-methyl-2′,3′-dihydro-1′H-spiro[cyclopropane-1,4′-isoquinolin]-7′-yl)amino]-6-(2-methylphenyl)-8-phenylpyrimido[4,5-d]pyridazin-5(6H)-one] | 0.4 |
| CC(C)N1CCCC(c2nn(-c3c(Cl)cccc3Cl)c(=O)c3cnc(Nc4ccc(N5CCN(C)CC5)cc4)nc23)C1 (centres unmarked) [Example 147, 6-(2,6-dichlorophenyl)-8-(1-isopropylpiperidin-3-yl)-2-{[4-(4-methylpiperazin-1-yl)phenyl]amino}pyrimido[4,5-d]pyridazin-5(6H)-one] | 12 |
| CN1CCN(c2ccc(Nc3ncc4c(=O)n(-c5c(Cl)cccc5Cl)nc(C5CCC5)c4n3)cc2)CC1 [Example 278, 8-cyclobutyl-6-(2,6-dichlorophenyl)-2-{[4-(4-methylpiperazin-1-yl)phenyl]amino}pyrimido[4,5-d]pyridazin-5(6H)-one] | 0.83 |
| CN1CCN(c2ccc(Nc3ncc4c(=O)n(-c5c(Cl)cccc5Cl)nc(-c5ccncn5)c4n3)cc2)CC1 [Example 179, 6-(2,6-dichlorophenyl)-2-{[4-(4-methylpiperazin-1-yl)phenyl]amino}-8-(pyrimidin-4-yl)pyrimido[4,5-d]pyridazin-5(6H)-one] | 0.1 |
| C=CCn1nc(-c2cccs2)c2nc(Nc3ccc(S(=O)(=O)N4CCOCC4)cc3)ncc2c1=O [Example 125, 6-allyl-2-{[4-(morpholin-4-ylsulfonyl)phenyl]amino}-8-(2-thienyl)pyrimido[4,5-d]pyridazin-5(6H)-one] | > 3140 |
| CN1CCN(c2ccc(Nc3ncc4c(=O)n(-c5c(Cl)cccc5Cl)nc(-c5cccc(N6CCCC6)n5)c4n3)cc2)CC1 [Example 180, 6-(2,6-dichlorophenyl)-2-{[4-(4-methylpiperazin-1-yl)phenyl]amino}-8-[6-(pyrrolidin-1-yl)pyridin-2-yl]pyrimido[4,5-d]pyridazin-5(6H)-on] | 2 |
| CN(C)Cc1ccc(Nc2ncc3c(=O)n(-c4ccccc4Cl)nc(-c4ccccc4)c3n2)cc1 [Example 204, 6-(2-chlorophenyl)-2-({4-[(dimethylamino)methyl]phenyl}amino)-8-phenylpyrimido[4,5-d]pyridazin-5(6H)-one] | 2 |
| CN1CCN(c2ccc(Nc3ncc4c(=O)n(-c5cccc(Cl)c5)nc(C5CCCC5)c4n3)cc2)CC1 [Example 56, 6-(3-chlorophenyl)-8-cyclopentyl-2-{[4-(4-methylpiperazin-1-yl)phenyl]amino}pyrimido[4,5-d]pyridazin-5(6H)-one] | 63 |
| CN1CCN(c2ccc(Nc3ncc4c(=O)n(-c5ccccc5C(F)(F)F)nc(-c5ccc(Cl)cc5Cl)c4n3)cc2)CC1 [Example 39, 8-(2,4-dichlorophenyl)-2-{[4-(4-methylpiperazin-1-yl)phenyl]amino}-6-[2-(trifluoromethyl)phenyl]pyrimido[4,5-d]pyridazin-5(6H)-one] | 250 |
| Cc1cc(Nc2ncc3c(=O)n(-c4c(Cl)cccc4Cl)nc(-c4cnn(C)c4)c3n2)ccc1N1CCCN(C)CC1 [Example 150, 6-(2,6-dichlorophenyl)-2-{[3-methyl-4-(4-methyl-1,4-diazepan-1-yl)phenyl]amino}-8-(1-methyl-1H-pyrazol-4-yl)pyrimido[4,5-d]pyridazin-5(6H)-one] | 0.1 |
| C=CCn1nc(-c2ccco2)c2nc(Nc3ccc(N4CCCC4=O)cc3)ncc2c1=O [Example 269, 8-(furan-2-yl)-2-{[4-(2-oxopyrrolidin-1-yl)phenyl]amino}-6-(prop-2-en-1-yl)pyrimido[4,5-d]pyridazin-5(6H)-one] | 58 |
| CN1CCN(c2ccc(Nc3ncc4c(=O)n(-c5c(Cl)cccc5Cl)nc(-c5cccs5)c4n3)cc2)CC1 [Example 70, 6-(2,6-dichlorophenyl)-2-{[4-(4-methylpiperazin-1-yl)phenyl]amino}-8-(2-thienyl)pyrimido[4,5-d]pyridazin-5(6H)-one] | 0.1 |
| Cc1ccccc1-n1nc(-c2ccco2)c2nc(Nc3ccc(N4CCCC4=O)cc3)ncc2c1=O [Example 135, 8-(2-furyl)-6-(2-methylphenyl)-2-{[4-(2-oxopyrrolidin-1-yl)phenyl]amino}pyrimido[4,5-d]pyridazin-5(6H)-one] | 8 |
| CN1Cc2cc(Nc3ncc4c(=O)n(-c5c(Cl)cccc5Cl)nc(-c5nccs5)c4n3)ccc2C2(CC2)C1 [Example 320, 6-(2,6-dichlorophenyl)-2-[(2′-methyl-2′,3′-dihydro-1′H-spiro[cyclopropane-1,4′-isoquinolin]-7′-yl)amino]-8-(1,3-thiazol-2-yl)pyrimido[4,5-d]pyridazin-5(6H)-one] | 0.49 |
| CN(C)CCn1cc(-c2nn(-c3c(Cl)cccc3Cl)c(=O)c3cnc(Nc4ccc(N5CCN(C)CC5)cc4)nc23)cn1 [Example 212, 6-(2,6-dichlorophenyl)-8-{1-[2-(dimethylamino)ethyl]-1H-pyrazol-4-yl}-2-{[4-(4-methylpiperazin-1-yl)phenyl]amino}pyrimido[4,5-d]pyridazin-5(6H)-one] | 0.6 |
| O=C1CCCN1c1ccc(-c2nn(-c3c(Cl)cccc3Cl)c(=O)c3cnc(Nc4ccc(N5CCNCC5)cc4)nc23)cc1 [Example 229, 6-(2,6-dichlorophenyl)-8-[4-(2-oxopyrrolidin-1-yl)phenyl]-2-{[4-(piperazin-1-yl)phenyl]amino}pyrimido[4,5-d]pyridazin-5(6H)-one] | 0.2 |
| CN1CCN(c2ccc(Nc3ncc4c(=O)n(-c5ccccc5)nc(-c5cccnc5Cl)c4n3)cc2)CC1 [Example 78, 8-(2-chloropyridin-3-yl)-2-{[4-(4-methylpiperazin-1-yl)phenyl]amino}-6-phenylpyrimido[4,5-d]pyridazin-5(6H)-one] | 48 |
| CN1CCN(c2ccc(Nc3ncc4c(=O)n(-c5c(F)cccc5Cl)nc(-c5ccncc5)c4n3)cc2)CC1 [Example 296, 6-(2-chloro-6-fluorophenyl)-2-{[4-(4-methylpiperazin-1-yl)phenyl]amino}-8-(pyridin-4-yl)pyrimido[4,5-d]pyridazin-5(6H)-one] | 0.27 |
